According to the CheMixHub ionic liquid set:

Experiment: xn = mol fraction of the nth substance listed

C=Cn1cc[n+](CCCC)c1.NCC(=O)[O-] + O
101.3 kPa
Details | electrical conductivity [S/m] | viscosity [mPa·s]
293.15 K, x1 = 0.5 | – | 59.3
293.15 K, x1 = 0.9 | – | 1599
303.15 K, x1 = 0.5 | 2.58 | 43.4
303.15 K, x1 = 1 | 0.009 | 9300
308.15 K, x1 = 0.1 | 1.11 | –
308.15 K, x1 = 0.7 | 1.99 | –
308.15 K, x1 = 0.9 | 0.48 | –
308.15 K, x1 = 1 | 0.012 | –
318.15 K, x1 = 0.5 | 3.58 | –
333.15 K, x1 = 0.3 | – | 10.48
333.15 K, x1 = 1 | – | 1753
343.15 K, x1 = 0.3 | – | 10.08
343.15 K, x1 = 1 | – | 1089
353.15 K, x1 = 0.5 | – | 21.66
353.15 K, x1 = 0.9 | – | 520
353.15 K, x1 = 1 | – | 730

CCCC[P+](CCCC)(CCCC)CCCC.F[B-](F)(F)F + CC#N
viscosity [mPa·s], 100 kPa
Details | 293.15 K | 298.15 K | 303.15 K | 308.15 K | 313.15 K | 318.15 K
x1 = 0.0005293 | – | 0.347 | – | – | – | –
x1 = 0.0007957 | – | 0.35 | – | – | – | –
x1 = 0.001066 | – | 0.353 | – | – | – | –
x1 = 0.001332 | – | 0.356 | – | – | – | –
x1 = 0.001602 | – | 0.36 | – | – | – | –
x1 = 0.001872 | – | 0.363 | – | – | – | –
x1 = 0.004186 | 0.373 | 0.356 | 0.341 | 0.326 | 0.313 | 0.3
x1 = 0.0082 | 0.395 | 0.376 | 0.359 | 0.343 | 0.329 | 0.315
x1 = 0.01203 | 0.415 | 0.395 | 0.376 | 0.359 | 0.344 | 0.329
x1 = 0.01623 | 0.439 | 0.417 | 0.398 | 0.378 | 0.362 | 0.346
x1 = 0.01997 | 0.462 | 0.439 | 0.417 | 0.397 | 0.379 | 0.362
x1 = 0.02402 | 0.489 | 0.463 | 0.441 | 0.417 | 0.399 | 0.38
x1 = 0.02784 | 0.514 | 0.485 | 0.459 | 0.438 | 0.417 | 0.398
x1 = 0.03177 | 0.539 | 0.512 | 0.484 | 0.459 | 0.437 | 0.416
x1 = 0.03555 | 0.565 | 0.533 | 0.505 | 0.479 | 0.456 | 0.434
x1 = 0.03928 | 0.597 | 0.565 | 0.533 | 0.505 | 0.48 | 0.456

CC[S+](CC)CCOCCOCCOCC[S+](CC)CC.O=S(=O)([N-]S(=O)(=O)C(F)(F)F)C(F)(F)F.O=S(=O)([N-]S(=O)(=O)C(F)(F)F)C(F)(F)F + CC[n+]1ccn(C)c1.N#C[N-]C#N + O=S(=O)([N-]S(=O)(=O)C(F)(F)F)C(F)(F)F.[Li+]
100 kPa, x1 = 0.1475, x2 = 0.7497
Details | electrical conductivity [S/m]
298 K | 0.673
303 K | 0.826
313 K | 1.15
323 K | 1.46
333 K | 1.79
343 K | 2.05

CCCC[P+](CCCC)(CCCC)CCCC.F[B-](F)(F)F + C1CCOC1
298.15 K, 100 kPa
Details | viscosity [mPa·s]
x1 = 0.0008214 | 0.468
x1 = 0.001232 | 0.473
x1 = 0.001649 | 0.478
x1 = 0.002058 | 0.483
x1 = 0.002474 | 0.489
x1 = 0.002883 | 0.495

Cc1ncc(C[n+]2csc(CCO)c2C)c(N)n1.Cl.[Cl-] + CC[n+]1ccn(C)c1.O=S(=O)([O-])O + O
viscosity [mPa·s], 100 kPa
Details | x1 = 0.0002695, x2 = 0 | x1 = 0.0005398, x2 = 0 | x1 = 0.0008099, x2 = 0 | x1 = 0.00108, x2 = 0 | x1 = 0.00135, x2 = 0 | x1 = 0.00162, x2 = 0 | x1 = 0.001889, x2 = 0
293.15 K | 1.01 | 1.02 | 1.03 | 1.03 | 1.04 | 1.05 | 1.06
298.15 K | 0.9 | 0.91 | 0.92 | 0.93 | 0.93 | 0.94 | 0.95
303.15 K | 0.81 | 0.81 | 0.82 | 0.83 | 0.84 | 0.85 | 0.86
308.15 K | 0.73 | 0.73 | 0.74 | 0.75 | 0.76 | 0.76 | 0.77
313.15 K | 0.66 | 0.67 | 0.68 | 0.68 | 0.69 | 0.7 | 0.71
318.15 K | 0.61 | 0.61 | 0.62 | 0.63 | 0.64 | 0.64 | 0.65

CCCCC(CC)COC(=O)CC(C(=O)OCC(CC)CCCC)S(=O)(=O)[O-].CCCC[n+]1ccn(C)c1 (centres undefined) + O
99.6 kPa, x1 = 0.8687
Details | viscosity [mPa·s]
293.15 K | 3442
303.15 K | 1454

C[N+](C)(C)CCC[N+]1(C)CCCCC1.N#C[N-]C#N.N#C[N-]C#N + CO
100 kPa
Details | viscosity [mPa·s]
293.15 K, x1 = 0.5002 | 271
293.15 K, x1 = 0.6001 | 585
303.15 K, x1 = 0.2001 | 11.3
303.15 K, x1 = 0.3002 | 28.5
303.15 K, x1 = 0.5002 | 160
323.15 K, x1 = 0.0999 | 2.73
323.15 K, x1 = 0.3002 | 15.7
333.15 K, x1 = 0.3999 | 24.9

c1ccsc1 + N#C[C-](C#N)C#N.OCCC[n+]1ccccc1
101 kPa, x2 = 0
Details | viscosity [mPa·s]
293.15 K | 0.653
298.15 K | 0.615
303.15 K | 0.58
308.15 K | 0.545
313.15 K | 0.518
318.15 K | 0.491
323.15 K | 0.464
328.15 K | 0.441
333.15 K | 0.42
338.15 K | 0.4
343.15 K | 0.382
348.15 K | 0.364

CCC(=O)[O-].CC[NH+]1CCNCC1 + CCCCO
Details | viscosity [mPa·s]
313.15 K, 101 kPa, x2 = 0.6004 | 14.05

CCCC[P+](CCCC)(CCCC)CCCC.F[B-](F)(F)F + C1COCO1
298.15 K, 100 kPa
Details | viscosity [mPa·s]
x1 = 0.0007033 | 0.595
x1 = 0.001051 | 0.6
x1 = 0.001406 | 0.606
x1 = 0.001753 | 0.613
x1 = 0.002107 | 0.62
x1 = 0.002453 | 0.627

CCCCCCCCCCCC[P+](CCCC)(CCCC)CCCC.c1c[n-]nn1 + COCCOCCOCCOCCOC
100 kPa
Details | viscosity [mPa·s]
278.15 K, x2 = 0.305 | 361
278.15 K, x2 = 0.596 | 73
288.15 K, x2 = 0.123 | 549
288.15 K, x2 = 0.395 | 124
293.15 K, x2 = 0.123 | 383
293.15 K, x2 = 0.495 | 59
298.15 K, x2 = 0.305 | 107
